From ChEMBL document CHEMBL3272336, “Potential histidine decarboxylase inhibitors. 1. alpha- and beta-substituted histidine analogues” (J Med Chem, 1977)
Active and inactive are the calls of the source. The rule behind the calls is not given here.

What was measured:
[1] = biological target: T1, Histidine decarboxylase (Rattus norvegicus) (UniProt P16453); assay: Inhibition of histidine decarboxylase in rat pyloric stomach using [carboxyl-14C]-histidine as substrate at 10^-3 M by 14CO2 trapping assay relative to control; type: tissue-based
T1 sequence (whole entry): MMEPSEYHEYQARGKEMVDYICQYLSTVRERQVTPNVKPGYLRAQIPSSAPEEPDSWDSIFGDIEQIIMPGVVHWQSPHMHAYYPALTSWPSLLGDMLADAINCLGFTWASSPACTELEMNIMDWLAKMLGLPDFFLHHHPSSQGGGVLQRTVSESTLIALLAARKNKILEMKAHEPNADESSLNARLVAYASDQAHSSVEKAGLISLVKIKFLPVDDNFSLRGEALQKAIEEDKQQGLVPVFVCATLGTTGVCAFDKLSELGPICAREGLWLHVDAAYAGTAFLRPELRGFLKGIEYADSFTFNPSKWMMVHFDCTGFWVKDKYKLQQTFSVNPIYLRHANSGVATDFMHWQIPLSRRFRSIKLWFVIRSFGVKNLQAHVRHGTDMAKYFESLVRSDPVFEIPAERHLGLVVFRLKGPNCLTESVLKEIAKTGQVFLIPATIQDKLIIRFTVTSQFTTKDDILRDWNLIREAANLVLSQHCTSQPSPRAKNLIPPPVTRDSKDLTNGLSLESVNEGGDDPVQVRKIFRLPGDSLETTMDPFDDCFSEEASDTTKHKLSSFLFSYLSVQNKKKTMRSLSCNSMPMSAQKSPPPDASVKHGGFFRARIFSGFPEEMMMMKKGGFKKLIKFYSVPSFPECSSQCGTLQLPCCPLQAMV

[2] = biological target: T1, Histidine decarboxylase (Rattus norvegicus); assay: Inhibition of histidine decarboxylase in rat pyloric stomach using [carboxyl-14C]-histidine as substrate at 10^-4 M by 14CO2 trapping assay relative to control; type: tissue-based

Compound | inhibition [1] [%] | inhibition [2]
CC(C)(c1c[nH]cn1)[C@H](N)C(=O)O | 0 | 
CCCC[C@](N)(Cc1c[nH]cn1)C(=O)O | 0 | 
N[C@@]1(Cc2c[nH]cn2)CCOC1=O | 19 | 12%

The next lines start with the values.

inhibition [1] [%] | inhibition [2] | Compound
40 | 30% | C[C@](N)(Cc1c[nH]cn1)C(=O)O
14 | 6% | CC[C@](N)(Cc1c[nH]cn1)C(=O)O
 | inactive | CC(c1c[nH]cn1)[C@H](N)C(=O)O (some centres not stated)
0 |  | NC(CCc1c[nH]cn1)C(=O)O (configuration not stated)
1 | 0% | CC(C)[C@](N)(Cc1c[nH]cn1)C(=O)O
